Usually IC50 stands for the concentration at which inhibition is half-maximal. A high value points to weaker potency in that assay.

The target of test [1] is T1, PI3 Kinase (p110δ/p85α) (h) (Homo sapiens, UniProt O00329).
T1 construct: endogenous in cells; host or cells: Raji
In words: Inhibition of phosphatidylinositol 3-kinase delta (PI3K δ), pAkt Western blotting in IgM-stimulated Raji cells. Type of test: cell-based. The settings on record: ATP=10 uM, sample concentration=100 nM. As for the experimental part:
(§1) The stimulated cells were transferred in a 1.5 mL tube, followed by centrifugation at 3000 rpm for 1 minute. 100 μL of RIPA buffer (radioimmunoprecipitation assay buffer, 50 mM Tris-HCl, 5 mM EDTA, 150 mM NaCl, 1% NP-40, 1 mM PMSF, pH 8.0; ELPIS, Korea) was added thereto, which was stored in a 4° C. refrigerator for 12 hours. Centrifugation was performed at 4° C. at 14,000 rpm for 20 minutes. The supernatant was transferred into a new 1.5 mL tube. Protein was quantified by BCA (bicinchoninic acid) method and samples were prepared. The composition of the sample was as follows: sample buffer (ELPIS, EBA-1052) 5×, protein 10 μg, and 1× sample buffer to make the total volume 20 μL. The sample was heated at 100° C. for 5 minutes. The evaporated water vapor was condensed in a refrigerator. The liquid stained on the wall was fallen down by centrifugation for a few seconds. The sample proceeded to 10% SDS (Sodium Dodecyl Sulfate) acrylamide gel for separation. The separated protein was transferred onto PVDF (poly-vinyl difluoride) membrane, followed by reaction with pAkt (phospho protein kinase B) antibody (Ser473 or Thr308; Cell signaling, 9271s or 13038s) for 12 hours at 4° C. The membrane was washed with TBST (Tris-Buffered Saline with Tween 20, 10 mM Tris-HCl, pH 7.5, 150 mM NaCl, 0.1% Tween-20) three times for 5 minutes each, to which the secondary antibody (rabbit antibody, Santacruz, sc-2004) was added, followed by reaction at room temperature for 2 hours. The membrane was washed with TBST three times for 10 minutes each, to which ECL (enhanced chemiluminescence, Thermo, NCI34095KR) was sprayed. Bands were investigated by using LAS-3000.
The inhibition of phosphatidylinositol 3 kinase delta (PI3K δ) by those compounds prepared in Examples 1˜98 was investigated by the following experiment. The inhibition activity of each compound was measured in the following conditions: ATP=10 uM, and sample concentration=100 nM.
(§2) Raji cells cultured in RPMI1640 (Hyclone, SH30027.02) supplemented with 10% fetal bovine serum (Hyclon, USA) were distributed in a 12-well plate at the density of 1,000,000 cells/well. The cells were stabilized in a 37° C. CO2 for 24 hours and then treated with each compound for 1 and half hours. The cells were treated with 0.25 μg/mL of IgM (immunoglobulin M, Southern Biotech, USA) to increase the intracellular activity of PI3K delta. 30 minutes later, the medium was discarded and the cells were washed with cold PBS (phosphate buffered saline, Gibco, 14190-250). PBS was then eliminated completely by using a pipette. Western blotting was performed according to the same manner as described in step 2 of Experimental Example 1 to evaluate the intracellular PI3K delta activity.

A further test has as its target T2, PI3 Kinase (p120γ) (h) (Homo sapiens, UniProt P48736).
T2 construct: endogenous in cells; host or cells: RAW264.7
In words: Inhibition of phosphatidylinositol 3-kinase gamma (PI3K γ), pAkt Western blotting in C5a-stimulated RAW264.7 macrophages. Type of test: cell-based, mouse. The settings on record: ATP=10 uM, sample concentration=100 nM. As for the experimental part: as §1
The inhibition of phosphatidylinositol 3 kinase gamma (PI3K γ) by those compounds prepared in Examples 1˜98 was investigated by the following experiment. The inhibition activity of each compound was measured in the following conditions: ATP=10 uM, and sample concentration=100 nM.
as §2, with “Macrophages (RAW264.7)” for “Raji cells”, “DMEM (Dulbecco's Modified Eagle Medium, Hyclon, SH30243.01)” for “RPMI1640 (Hyclone, SH30027.02)”, “10 ng/mL” for “0.25 μg/mL”, “C5a (complement component 5a, 10 μg/mL; R&D, 2150-C5)” for “IgM (immunoglobulin M, Southern Biotech, USA)”, “gamma. 5” for “delta. 30”, “gamma” for “delta”
For orientation: Immunoblotting shows a protein as a band on a membrane.

A value given as a limit tells only on which side of the number the result lay.

T1 sequence (O00329 whole entry): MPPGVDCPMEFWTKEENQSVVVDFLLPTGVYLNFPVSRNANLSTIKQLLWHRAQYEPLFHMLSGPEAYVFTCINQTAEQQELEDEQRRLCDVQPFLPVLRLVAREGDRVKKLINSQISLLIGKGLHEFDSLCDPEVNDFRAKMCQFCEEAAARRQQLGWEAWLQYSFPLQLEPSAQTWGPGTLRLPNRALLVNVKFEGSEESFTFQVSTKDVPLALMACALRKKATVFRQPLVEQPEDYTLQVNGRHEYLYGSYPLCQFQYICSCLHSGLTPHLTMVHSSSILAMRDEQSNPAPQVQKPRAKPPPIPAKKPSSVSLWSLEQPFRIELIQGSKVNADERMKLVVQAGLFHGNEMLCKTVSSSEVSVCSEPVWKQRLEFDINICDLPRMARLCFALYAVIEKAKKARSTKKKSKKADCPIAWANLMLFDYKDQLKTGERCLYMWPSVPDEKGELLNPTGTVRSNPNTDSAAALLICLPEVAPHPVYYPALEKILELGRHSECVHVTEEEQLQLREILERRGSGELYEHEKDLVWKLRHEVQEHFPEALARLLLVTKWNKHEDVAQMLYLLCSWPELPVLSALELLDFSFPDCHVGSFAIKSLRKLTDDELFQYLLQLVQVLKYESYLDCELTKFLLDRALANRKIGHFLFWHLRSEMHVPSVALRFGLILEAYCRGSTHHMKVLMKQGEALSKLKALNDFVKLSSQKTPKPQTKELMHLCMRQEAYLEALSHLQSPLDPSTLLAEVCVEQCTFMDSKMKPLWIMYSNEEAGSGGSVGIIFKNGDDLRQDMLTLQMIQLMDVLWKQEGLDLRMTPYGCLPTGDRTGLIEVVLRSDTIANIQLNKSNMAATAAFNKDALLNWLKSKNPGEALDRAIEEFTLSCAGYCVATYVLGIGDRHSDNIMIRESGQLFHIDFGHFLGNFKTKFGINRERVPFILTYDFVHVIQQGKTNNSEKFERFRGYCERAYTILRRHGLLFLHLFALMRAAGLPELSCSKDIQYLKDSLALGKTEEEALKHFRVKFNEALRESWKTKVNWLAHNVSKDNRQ
T1 sequence (P27986 whole entry partner): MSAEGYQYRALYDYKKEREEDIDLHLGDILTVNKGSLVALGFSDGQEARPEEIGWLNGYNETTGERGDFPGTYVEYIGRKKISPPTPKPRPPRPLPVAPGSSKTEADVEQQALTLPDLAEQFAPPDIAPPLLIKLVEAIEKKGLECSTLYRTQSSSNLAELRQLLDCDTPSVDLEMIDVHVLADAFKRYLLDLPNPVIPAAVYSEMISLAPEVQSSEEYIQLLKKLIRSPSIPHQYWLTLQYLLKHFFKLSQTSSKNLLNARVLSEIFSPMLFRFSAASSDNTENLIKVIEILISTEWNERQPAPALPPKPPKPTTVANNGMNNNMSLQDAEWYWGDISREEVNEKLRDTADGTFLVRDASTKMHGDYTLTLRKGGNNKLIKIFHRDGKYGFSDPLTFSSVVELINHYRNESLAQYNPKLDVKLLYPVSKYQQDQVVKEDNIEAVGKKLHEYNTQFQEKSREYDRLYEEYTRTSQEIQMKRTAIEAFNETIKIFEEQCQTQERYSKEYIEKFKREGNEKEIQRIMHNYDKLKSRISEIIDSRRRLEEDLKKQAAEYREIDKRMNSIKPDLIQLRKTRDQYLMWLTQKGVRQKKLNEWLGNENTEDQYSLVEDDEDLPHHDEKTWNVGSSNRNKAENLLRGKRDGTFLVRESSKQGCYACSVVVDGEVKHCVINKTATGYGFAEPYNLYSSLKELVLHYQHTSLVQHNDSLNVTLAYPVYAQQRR
T2 sequence (P48736 whole entry): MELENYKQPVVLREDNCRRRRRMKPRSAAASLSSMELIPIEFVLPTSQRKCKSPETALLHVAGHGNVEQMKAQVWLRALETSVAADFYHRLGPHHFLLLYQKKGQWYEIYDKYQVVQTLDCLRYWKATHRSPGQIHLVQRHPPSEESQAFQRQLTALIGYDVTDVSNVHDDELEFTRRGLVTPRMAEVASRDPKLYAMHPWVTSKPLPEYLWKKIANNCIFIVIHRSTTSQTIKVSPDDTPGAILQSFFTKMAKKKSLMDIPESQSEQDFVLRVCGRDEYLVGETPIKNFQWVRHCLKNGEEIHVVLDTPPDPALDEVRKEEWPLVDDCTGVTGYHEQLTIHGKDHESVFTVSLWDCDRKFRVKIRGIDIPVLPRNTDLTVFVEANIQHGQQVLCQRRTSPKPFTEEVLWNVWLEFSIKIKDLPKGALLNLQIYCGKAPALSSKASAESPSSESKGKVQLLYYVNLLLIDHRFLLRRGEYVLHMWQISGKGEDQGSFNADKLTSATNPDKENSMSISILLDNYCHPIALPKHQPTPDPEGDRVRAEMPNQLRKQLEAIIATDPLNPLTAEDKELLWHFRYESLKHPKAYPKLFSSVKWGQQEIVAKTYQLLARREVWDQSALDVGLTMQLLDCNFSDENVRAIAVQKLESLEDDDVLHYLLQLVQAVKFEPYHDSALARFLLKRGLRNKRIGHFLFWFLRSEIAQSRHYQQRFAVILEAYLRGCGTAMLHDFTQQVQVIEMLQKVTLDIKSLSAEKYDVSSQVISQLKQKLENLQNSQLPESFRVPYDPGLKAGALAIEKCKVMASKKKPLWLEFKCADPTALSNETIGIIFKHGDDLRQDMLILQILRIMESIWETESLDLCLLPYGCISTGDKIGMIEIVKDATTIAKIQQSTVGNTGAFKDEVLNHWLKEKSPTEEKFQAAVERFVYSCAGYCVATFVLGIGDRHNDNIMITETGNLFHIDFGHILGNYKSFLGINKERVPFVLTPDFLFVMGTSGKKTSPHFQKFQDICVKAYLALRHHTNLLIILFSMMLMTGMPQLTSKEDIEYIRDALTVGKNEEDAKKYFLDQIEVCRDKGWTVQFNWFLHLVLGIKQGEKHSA

On to `O=c1nc[nH]c2ncnc(N3CCC[C@H]3c3cc4cccc(Cl)c4c(=O)n3-c3cccnc3)c12` [Example 75, (S)-5-(2-(8-chloro-1-oxo-2-(pyridine-3-yl)-1,2-dihydroisoquinoline-3-yl)pyrrolidine-1-yl)pyrimido[4,5-d]pyrimidine-4(1H)-one], for which the IC50 in test [1] is 10 to 500 nM; on PI3 Kinase (p120γ) (h), over 500 nM.
For `O=c1nc[nH]c2ncnc(N3CCC[C@H]3c3nc4cccc(Cl)c4c(=O)n3-c3cccnc3)c12` [Example 76, (S)-5-(2-(5-chloro-4-oxo-3-(pyridine-3-yl)-3,4-dihydroquinazoline-2-yl)pyrrolidine-1-yl)pyrimido[4,5-d]pyrimidine-4(1H)-one], the IC50 (in test [1]; at PI3 Kinase (p120γ) (h)) was over 500 nM throughout.
In the case of `O=c1nc[nH]c2ncnc(N3CCC[C@H]3c3nc4cccc(Cl)c4c(=O)n3-c3cccc(F)c3)c12` [Example 77, (S)-5-(2-(5-chloro-3-(3-fluorophenyl)-4-oxo-3,4-dihydroquinazoline-2-yl)pyrrolidine-1-yl)pyrimido[4,5-d]pyrimidine-4(1H)-one], the 50% inhibitory concentration (IC50) (in test [1]; against PI3 Kinase (p120γ) (h)) was over 500 nM each time.
With `Cc1cccc(-n2c([C@@H]3CCCN3c3ncnc4[nH]cnc(=O)c34)nc3cccc(Cl)c3c2=O)c1` [Example 78, (S)-5-(2-(5-chloro-4-oxo-3-(m-tolyl)-3,4-dihydroquinazoline-2-yl)pyrrolidine-1-yl)pyrimido[4,5-d]pyrimidine-4(1H)-one], the IC50 (in test [1]; at PI3 Kinase (p120γ) (h)) was over 500 nM throughout.
Consider `O=c1nc[nH]c2ncnc(N3CCC[C@H]3c3nn4ccc(Cl)c4c(=O)n3-c3cccc(F)c3)c12` [Example 80, (S)-5-(2-(5-chloro-3-(3-fluorophenyl)-4-oxo-3,4-dihydropyrrolo[2,1-f][1,2,4]triazine-2-yl)pyrrolidine-1-yl)pyrimido[4,5-d]pyrimidine-4(1H)-one], for which the half-maximal inhibitory concentration (IC50) (in test [1]; at PI3 Kinase (p120γ) (h)) was over 500 nM in each case.
As for `C[C@H](Nc1nc(N)nc2[nH]cnc(=O)c12)c1nc2cccc(Cl)c2c(=O)n1-c1ccccc1` [Example 81, (S)-7-amino-5-((1-(5-chloro-4-oxo-3-phenyl-3,4-dihydroquinazoline-2-yl)ethyl)amino)pyrimido[4,5-d]pyrimidine-4(1H)-one], the half-maximal inhibitory concentration (IC50) (in test [1]; on PI3 Kinase (p120γ) (h)) was 10 to 500 nM each time.
In the case of `C[C@H](Nc1nc(N)nc2[nH]cnc(=O)c12)c1nc2cccc(Cl)c2c(=O)n1-c1cccnc1` [Example 82, (S)-7-amino-5-((1-(5-chloro-4-oxo-3-(pyridine-3-yl)-3,4-dihydroquinazoline-2-yl)ethyl)amino)pyrimido[4,5-d]pyrimidine-4(1H)-one], the IC50 (in test [1]; at PI3 Kinase (p120γ) (h)) was 10 to 500 nM throughout.
Consider `C[C@H](Nc1nc(N)nc2[nH]cnc(=O)c12)c1nc2cccc(Cl)c2c(=O)n1-c1cccc(F)c1` [Example 83, (S)-7-amino-5-((1-(5-chloro-3-(3-fluorophenyl)-4-oxo-3,4-dihydroquinazoline-2-yl)ethyl)amino)pyrimido[4,5-d]pyrimidine-4(1H)-one], for which the IC50 (in test [1]; against PI3 Kinase (p120γ) (h)) was over 500 nM throughout.
For `Cc1cccc(-n2c([C@H](C)Nc3nc(N)nc4[nH]cnc(=O)c34)nc3cccc(Cl)c3c2=O)c1` [Example 84, (S)-7-amino-5-((1-(5-chloro-4-oxo-3-(m-tolyl)-3,4-dihydroquinazoline-2-yl)ethyl)amino)pyrimido[4,5-d]pyrimidine-4(1H)-one], the IC50 (in test [1]; against PI3 Kinase (p120γ) (h)) was 10 to 500 nM in each case.
For the compound `C[C@H](Nc1nc(N)nc2[nH]cnc(=O)c12)c1nn2ccc(Cl)c2c(=O)n1-c1ccccc1` [Example 86, (S)-7-amino-5-((1-(5-chloro-4-oxo-3-phenyl-3,4-dihydropyrrolo[2,1-f][1,2,4]triazine-2-yl)ethyl)amino)pyrimido[4,5-d]pyrimidine-4(1H)-one], the half-inhibitory concentration (IC50) (in test [1]; against PI3 Kinase (p120γ) (h)) was 10 to 500 nM throughout.
For the compound `C[C@H](Nc1nc(N)nc2[nH]cnc(=O)c12)c1nn2ccc(Cl)c2c(=O)n1-c1cccc(F)c1` [Example 87, (S)-7-amino-5-((1-(5-chloro-3-(3-fluorophenyl)-4-oxo-3,4-dihydropyrrolo[2,1-f][1,2,4]triazine-2-yl)ethyl)amino)pyrimido[4,5-d]pyrimidine-4(1H)-one], the figures for the IC50 (in test [1]; against PI3 Kinase (p120γ) (h)) were under 10 nM and 10 to 500 nM, respectively.
For `CC[C@H](Nc1nc(N)nc2[nH]cnc(=O)c12)c1nc2cccc(F)c2c(=O)n1-c1ccccc1` [Example 89, (S)-7-amino-5-((1-(5-fluoro-4-oxo-3-phenyl-3,4-dihydroquinazoline-2-yl)propyl)amino)pyrimido[4,5-d]pyrimidine-4(1H)-one], in that order: 10 to 500 nM and 10 to 500 nM.
The corresponding values for `Nc1nc(N2CCC[C@H]2c2nc3cccc(Cl)c3c(=O)n2-c2ccccc2)c2c(=O)nc[nH]c2n1` [Example 90, (S)-7-amino-5-(2-(5-chloro-4-oxo-3-phenyl-3,4-dihydroquinazoline-2-yl)pyrrolidine-1-yl)pyrimido[4,5-d]pyrimidine-4(1H)-one] are over 500 nM and over 500 nM.
In the case of `Nc1nc(N2CCC[C@H]2c2nc3cccc(Cl)c3c(=O)n2-c2cccnc2)c2c(=O)nc[nH]c2n1` [Example 91, (S)-7-amino-5-(2-(5-chloro-4-oxo-3-(pyridine-3-yl)-3,4-dihydroquinazoline-2-yl)pyrrolidine-1-yl)pyrimido[4,5-d]pyrimidine-4(1H)-one], the concentration for half-maximal inhibition (IC50) (in test [1]; against PI3 Kinase (p120γ) (h)) was over 500 nM in each case.
With `Nc1nc(N2CCC[C@H]2c2nc3cccc(Cl)c3c(=O)n2-c2cccc(F)c2)c2c(=O)nc[nH]c2n1` [Example 92, (S)-7-amino-5-(2-(5-chloro-3-(3-fluorophenyl)-4-oxo-3,4-dihydroquinazoline-2-yl)pyrrolidine-1-yl)pyrimido[4,5-d]pyrimidine-4(1H)-one], the concentration for half-maximal inhibition (IC50) (in test [1]; against PI3 Kinase (p120γ) (h)) was over 500 nM in each case.
In the case of `Cc1cccc(-n2c([C@@H]3CCCN3c3nc(N)nc4[nH]cnc(=O)c34)nc3cccc(Cl)c3c2=O)c1` [Example 93, (S)-7-amino-5-(2-(5-chloro-4-oxo-3-(m-tolyl)-3,4-dihydroquinazoline-2-yl)pyrrolidine-1-yl)pyrimido[4,5-d]pyrimidine-4(1H)-one], the IC50 (in test [1]; on PI3 Kinase (p120γ) (h)) was over 500 nM in each case.
Take `Nc1nc(N2CCC[C@H]2c2cc3cccc(Cl)c3c(=O)n2-c2ccccc2)c2c(=O)nc[nH]c2n1` [Example 94, (S)-7-amino-5-(2-(8-chloro-1-oxo-2-phenyl-1,2-dihydroisoquinoline-3-yl)pyrrolidine-1-yl)pyrimido[4,5-d]pyrimidine-4(1H)-one]: the IC50 (in test [1]; on PI3 Kinase (p120γ) (h)) was 10 to 500 nM in each case.
On to `Nc1nc(N2CCC[C@H]2c2nn3ccc(Cl)c3c(=O)n2-c2cccc(F)c2)c2c(=O)nc[nH]c2n1` [Example 96, (S)-7-amino-5-(2-(5-chloro-3-(3-fluorophenyl)-4-oxo-3,4-dihydropyrrolo[2,1-f][1,2,4]triazine-2-yl)pyrrolidine-1-yl)pyrimido[4,5-d]pyrimidine-4(1H)-one], for which the IC50 (in test [1]; at PI3 Kinase (p120γ) (h)) was over 500 nM each time.
On to `C[C@H](Nc1ncnc2c1C(=O)CCN2)c1cc2cccc(Cl)c2c(=O)n1-c1ccccc1` [Example 97, (S)-4-((1-(8-chloro-1-oxo-2-phenyl-1,2-dihydroisoquinoline-3-yl)ethyl)amino)-7,8-dihydropyrido[2,3-d]pyrimidine-5(6H)-one], for which the half-inhibitory concentration (IC50) in test [1] was under 10 nM; against PI3 Kinase (p120γ) (h), 10 to 500 nM.

The values are drawn from US10526337B2, “Heteroaryl derivative or pharmaceutically acceptable salt thereof, preparation method therefor, and pharmaceutical composition for preventing or treating diseases associated with PI3 kinases, containing same as active ingredient” (KOREA RESEARCH INSTITUTE OF CHEMICAL TECHNOLOGY, priority 2015, dated 2020).
